Data taken from PMC10218498, “Exploring BenzylethoxyAryl Urea Scaffolds for Multitarget Immunomodulation Therapies” (International Journal of Molecular Sciences, 2023).

Experiments:
[1] = tested on: human microvessel endothelial cells (HMEC-1); test: MTT cell proliferation assay, HMEC-1; assay type: cell-based; details: 48 h of treatment
Experimental: (§1) This assay allowed us to establish the corresponding IC50 values (expressed as the concentration, in μM, at which 50% of cell viability is achieved), shown in Table 1.
(§2) In 96-well plates, 5 × 10^3 (HT-29, MCF-7, A549, HMEC-1, Jurkat, and HEK-293) cells per well were incubated with serial dilutions of the tested compounds in a total volume of 100 μL of their respective growth media. The 3-(4,5-dimethylthiazol-2-yl)-2,5-diphenyltetrazolium bromide (MTT; Sigma Chemical Co.) dye reduction assay in 96-well microplates was used. After 2 days of incubation (37 °C, 5% CO2 in a humid atmosphere), 10 μL of MTT (5 mg/mL in phosphate-buffered saline, PBS) was added to each well, and the plate was incubated for a further 3 h (37 °C). After that, the supernatant was discarded and replaced by 100 µL of DMSO to dissolve formazan crystals. The absorbance was then read at 550 nm by spectrophotometry. For all concentrations of compound, cell viability was expressed as the percentage of the ratio between the mean absorbance of treated cells and the mean absorbance of untreated cells. Three independent experiments were performed, and the IC50 values (i.e., concentration half inhibiting cell proliferation) were graphically determined using GraphPad Prism 4 software.

[2] = tested on: HT-29 (colon adenocarcinoma); test: MTT cell proliferation assay, HT-29; assay type: cell-based, human; details: for IC50: Homo sapiens, HT-29, 48 h of treatment, read-out: IC50 HT-29; for IC50 / effect on cancer cell proliferation (HT-29), in words: MTT
Experimental: (§3) The 3-(4,5-dimethylthiazol-2-yl)-2,5-diphenyltetrazolium bromide (MTT; Sigma Chemical Co.) dye reduction assay in 96-well microplates was used. […] After that, the supernatant was discarded and replaced by 100 µL of DMSO to dissolve formazan crystals. The absorbance was then read at 550 nm by spectrophotometry. For all concentrations of compound, cell viability was expressed as the percentage of the ratio between the mean absorbance of treated cells and the mean absorbance of untreated cells. Three independent experiments were performed, and the IC50 values (i.e., concentration half inhibiting cell proliferation) were graphically determined using GraphPad Prism 4 software.

[3] = tested on: A-549 (pulmonary adenocarcinoma); test: MTT cell proliferation assay, A-549; assay type: cell-based, human; details: for IC50: Homo sapiens, A549, 48 h of treatment, read-out: IC50 A-549; for IC50 / effect on cancer cell proliferation (A-549), in words: MTT
Experimental: as §3

[4] = tested on: HEK-293 (human embryonic kidney cells); test: MTT cell proliferation assay, HEK-293; assay type: cell-based; details: HEK293, 48 h of treatment
Experimental: as §1, §2

[5] = tested on: Jurkat T cells; test: MTT cell proliferation assay, Jurkat T cells; assay type: cell-based; details: Homo sapiens, 48 h of treatment
Experimental: as §1, §2

[6] = tested on: Fyn; test: Immunoblotting of OT-1 CTL signaling proteins: FYN; assay type: cell-based, mice; details: OT-1, 20 μM, 24 h
Text: (§4) We next studied the effect of our compounds on the signaling cascade downstream of the TCR. […] However, both the expression and phosphorylation of LCK were increased in response to all compounds. The effects on ZAP70 and LAT were more complex, with opposing effects on total protein expression versus phosphorylation. Thus, all compounds modulated signaling downstream of the TCR in a manner that is likely to impact T-cell activation and activity.
(§5) CD8+ cells were obtained from the inguinal, axillary, brachial, and mesenteric lymph nodes previously collected from OT-1 mice. Lymph node cells were isolated by mashing through a […] cell strainer. Cells were resuspended in IMDM cell media at a concentration of 0.3 million cells/mL. N4 ovalbumin peptide was added at a concentration of 10 nM, and cells were incubated for 48 h at 5% CO2, 37 °C. On day 2 from recollection, cells were pelleted at 1300 rpm for 5 min and washed with PBS to remove N4 peptide. The cell pellet was resuspended in fresh IMDM media in a new flask in a 0.3 million cells/mL and supplemented with IL-2 at 20 ng/mL. After incubation for a further 48 h (day 4), cells were re-seeded in fresh IMDM media at a concentration of 0.3 million cells/mL supplemented with IL-2 at 20 ng/mL. Cells were cultured for a further 48 h prior to use on day 6 in functional assays.
(§6) To study the effect of the compounds in the signaling pathway of CTLs, the compound was incubated for 24 h at 20 μM. After this time, cells were collected and washed twice in PBS and lysed in radioimmunoprecipitation assay (RIPA) lysis buffer (50 mM tris-HCl at pH 7.4, 150 mM sodium chloride, 5 mM EGTA, 0.1% SDS, 1% NP-40, and 1% deoxycholate) supplemented with a protease and phosphatase inhibitor cocktail (mini complete ULTRA Protease tablet and phosSTOP tablet from Roche, Basel, Switzerland). Lysates were clarified by high-speed centrifugation (17,000 rpm for 15 min at 4 °C). Protein concentration was measured using a Micro BCA Protein Assay (Thermo Scientific, Waltham, MA, USA), and 10 μg to 30 μg of total protein were supplemented with 2X SDS sample buffer [tris (pH 6.8), 20% glycerol, 5% SDS, b-mercaptoethanol, and bromophenol blue) and boiled at 95 °C for 5 min. […] Bound Ab was detected by incubation with anti-rabbit and anti-mouse horseradish peroxidase secondary Ab (Cell Signaling Technology) and visualized using the Bio-Rad ChemiDoc MP Imaging System.

[7] = tested on: LCK; test: Immunoblotting of OT-1 CTL signaling proteins: LCK; assay type: cell-based, mice; details: OT-1, 20 μM, 24 h
Text: as §4, §5, §6

[8] = target: T1, PD-L1 (Homo sapiens, UniProt Q9NZQ7); test: PD-L1 relative quantification by flow cytometry in HT-29; assay type: cell-based; set-up: endogenous in cells; host or cells: HT-29; details: HT-29, 20 µM, 24 h, relative to DMSO control = 100
T1 sequence (Q9NZQ7 19-290): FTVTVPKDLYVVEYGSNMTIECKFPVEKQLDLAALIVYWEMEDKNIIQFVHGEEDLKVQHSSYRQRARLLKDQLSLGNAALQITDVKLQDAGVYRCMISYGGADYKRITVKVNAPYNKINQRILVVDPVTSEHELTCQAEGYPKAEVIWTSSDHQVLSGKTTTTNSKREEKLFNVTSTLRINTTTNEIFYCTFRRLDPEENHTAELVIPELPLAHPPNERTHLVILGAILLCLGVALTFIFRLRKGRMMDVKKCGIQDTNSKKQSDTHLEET
Experimental: (§7) To assess the effect of the selected compounds on the biological targets PD-L1 and VEFGR-2, we performed the study on both cancer cell lines HT-29 and A-549 and by flow cytometry technique. […] For these assays, cells were incubated for 24 h in the presence of the corresponding compounds at 20 µM concentration.
(§8) To study the effect of the compounds on every biological target in cancer cell lines, the compounds were used at 20 µM dose.
(§9) For the assay, 10^5 cells per well were incubated for 24 h with the corresponding dose of the tested compound in a total volume of 500 μL of their growth media.
(§10) On the one hand, to detect total PD-L1 and VEGFR-2, after the cell treatments, they were collected and fixed with 4% in PBS paraformaldehyde. After fixation, a treatment with 0.5% in PBS TritonTM X-100 was performed, and finally, cells were stained with FITC Mouse monoclonal Anti-Human VEGFR-2 (ab184903) and Alexa Fluor® 647 Rabbit monoclonal Anti-PD-L1 (ab215251).
(§11) On the other hand, to detect membrane PD-L1 and VEGFR-2, the process was the same, avoiding the treatment with 0.5% in PBS TritonTM X-100 step.

[9] = target: T1, PD-L1; test: PD-L1 relative quantification by flow cytometry in MCF-7; assay type: cell-based; set-up: endogenous in cells; host or cells: MCF-7; details: MCF-7, 20 µM, 24 h, control = 100
Experimental: In view of the good results obtained for these selected compounds, we decided to extend the study to a third cancer cell line, MCF-7 (Human breast cancer adenocarcinoma). First, we determined the IC50 values of the derivatives and their SI indexes (see Table 4). Then, we determined the effect of the selected compounds on the biological targets, PD-L1 and VEGFR-2, by flow cytometry. […] As usually, the assay was performed at a concentration of 20 µM for 24 h.
as §8, §9, §10, §11

[10] = tested on: MCF-7 (Human breast cancer adenocarcinoma); test: MTT cell proliferation assay, MCF-7; assay type: cell-based; details: Homo sapiens, MCF7; MTT; read-out: IC50 (μM) MCF-7
Experimental: as §3

[11] = tested on: HMEC-1 microtube formation; test: Tube formation inhibition assay on Matrigel; assay type: cell-based, human; details: HMEC-1 on Matrigel, 24 h
Experimental: The capacity to inhibit the formation of a new vasculature network formed by HMEC-1 was evaluated on compounds 8 and 14 at different concentrations.
Wells of an IBIDI μ-slide angiogenesis (IBIDI, Martinsried, Germany) were coated with 15 μL of Matrigel® (10 mg/mL, BD Biosciences) at 4 °C. After gelatinization at 37 °C for 30 min, HMEC-1 cells were seeded at 2 × 10^4 cells/well in 25 μL of culture medium on top of the Matrigel and were incubated 30 min at 37 °C while are attached. Then, compounds were added and dissolved in 25 μL of culture medium, and after 24 h of incubation at 37 °C, tube formation was evaluated.

[12] = target: T1, PD-L1; test: PD-L1 relative quantification by flow cytometry in A-549; assay type: cell-based; set-up: endogenous in cells; host or cells: A-549; details: A-549, 20 µM, 24 h, relative to DMSO control = 100
Experimental: as §7, §8, §9, §10, §11

IC50 [2] [µM] | IC50 [3] [µM] | IC50 [5] [µM] | melting point [°C] | Structure (SMILES) | IC50 [1] [µM] | IC50 [4] [µM] | effect on cancer cell proliferation (HT-29), in words [2] | effect on cancer cell proliferation (A-549), in words [3] | also measured
> 100 | > 100 | > 100 | 202 to 203 | COc1ccc(COc2cccc(NC(=O)Nc3cccc(F)c3)c2)cc1 [Compound 3] | > 100 | 3.7 ± 0.8 | no effect | no effect | 
12 ± 4 | 15 ± 2 | > 100 |  | COc1ccc(COc2cccc(NC(=O)Nc3ccc(Cl)cc3)c2)cc1 [Compound 5] | > 100 | > 100 |  |  | SI (HT-29) (IC50HEK293/IC50HT-29) ([2]; selectivity index): >8; SI (A-549) (IC50HEK293/A-549) ([3]; selectivity index): >7
38 ± 15 | > 100 | > 100 |  | COc1ccc(COc2cccc(NC(=O)Nc3cccc(Cl)c3)c2)cc1 [Compound 6] | > 100 | 3.3 ± 0.5 | only active in HT-29 |  | 
17 ± 4 | 27 ± 2 |  |  | CNC(=O)c1cc(Oc2ccc(NC(=O)Nc3ccc(Cl)c(C(F)(F)F)c3)cc2)ccn1 [Sorafenib, sorafenib, reference compound] | 34 ± 3 | 5 ± 0.7 |  |  | Total PD-L1 (%) [8]: 96 ± 49%; % PD-L1 Memb. [9]: 89 ± 2%; % PD-L1 Total [9]: 80 ± 13%; IC50 [10]: 14 ± 4 µM; Minimum Active Conc. (inhibition of microtube formation) [11]: 10 µM; Total PD-L1 (%) [12]: 102 ± 10%

Further lines, the compound ahead of its results:

Structure (SMILES) | IC50 [2] [µM] | IC50 [3] [µM] | IC50 [5] [µM] | melting point [°C] | IC50 [1] [µM] | IC50 [4] [µM] | effect on cancer cell proliferation (HT-29), in words [2] | effect on cancer cell proliferation (A-549), in words [3] | also measured
COc1ccc(COc2cccc(NC(=O)Nc3ccccc3)c2)cc1 [Compound 1] | 21 ± 10 | 6 ± 3 | > 100 |  | > 100 | 1.4 ± 0.2 |  |  | 
COc1ccc(COc2cccc(NC(=O)Nc3ccccc3F)c2)cc1 [Compound 4] | > 100 | > 100 | > 100 | 185 to 186 | > 100 | 16 ± 4 | no effect | no effect | 
COc1ccc(COc2cccc(NC(=O)Nc3ccccc3Cl)c2)cc1 [Compound 7] | 50 ± 4 | 48 ± 3 | > 100 | 183.4 | > 100 | 27 ± 9 |  |  | 
COc1ccc(COc2cccc(NC(=O)Nc3cccc(Br)c3)c2)cc1 [Compound 9] | 25 ± 2 | 3.9 ± 0.4 | > 100 | 198.5 | > 100 | 0.7 ± 0.3 |  |  | FYN protein expression (Western blot quantification) [6]: 108; LCK protein expression (Western blot quantification) [7]: 180; pY394-LCK protein expression (Western blot quantification) [7]: 175; pY505-LCK protein expression (Western blot quantification) [7]: 154
COc1ccc(COc2cccc(NC(=O)Nc3ccccc3Br)c2)cc1 [Compound 10] | 41 ± 5 | 25 ± 1 | > 100 | 198.5 | > 100 | 8.7 ± 0.7 |  |  | 
COc1ccc(COc2cccc(NC(=O)Nc3cccc(OC)c3)c2)cc1 [Compound 12] | > 100 | > 100 | > 100 | 137.5 to 168.9 | > 100 | 12 ± 1 | no effect | no effect | 
COc1ccc(COc2cccc(NC(=O)Nc3ccccc3OC)c2)cc1 [Compound 13] | > 100 | > 100 | > 100 | 160 to 161.6 | > 100 | > 100 | no effect | no effect | 
CCN(CC)CCNC(=O)c1c(C)[nH]c(/C=C2\C(=O)Nc3ccc(F)cc32)c1C [Sunitinib, sunitinib, reference compound] |  |  |  |  |  |  |  |  | Minimum Active Conc. (inhibition of microtube formation) [11]: 3 µM
